Usually Kd stands for the concentration at which binding is half-saturated. A word on the viability: it is a read-out of living cells in per cent, often relative to untreated cells.

Where two headings read alike, the source gives them in different places.

One series has as its target ECF‐module (EcfTAA′) (Streptococcus pneumoniae, UniProt A0A0H2ZPG6+Q04HV7+Q97N51). In words: SPR binding to immobilized ECF‐module. An excerpt: After identifying the optimal buffer and assessing the stability of the ECF transporter proteins, we proceeded to determine the binding affinity (K d) of small‐molecule inhibitors using SPR. This label‐free technique allows for the investigation of protein–ligand interactions in real time and requires protein immobilization (GE Healthcare Life Science, [2012]). […] The ECF‐PanT, ECF‐module, and ECF‐FolT2, each bearing a histidine tag, were immobilized on a high‐affinity poly‐nitrilotriacetic acid (poly‐NTA) sensor chip, which was initially activated using NiCl2. The His‐tagged proteins were then injected over the Ni^2+‐activated surface to strongly bind to the metal (Knecht et al., [2009]). The immobilization resonance unit (RU) levels were 12,000–15,000 for ECF‐PanT, 9000–12,000 for the ECF‐module, and 6000–9000 for ECF‐FolT2.
In this assay, we used HEPES buffer (10 mM HEPES, 50 mM NaCl, 50 μM EDTA, 0.05% (v/v) DDM, and a pH value of 7.5) as recommended by Xantec Bioanalytics, with a slight modification made to create a more favorable environment for the ECF proteins, enabling their stability to be maintained throughout the assay. Additionally, the protein was maintained in the buffer containing 5% (v/v) DMSO. For a more in‐depth description of the procedures, please refer to Appendix S1.
Surface plasmon resonance (SPR)
The SPR binding studies were performed using a Reichert 4SPR surface plasmon resonance spectrometer (Reichert Technologies, Buffalo, NY, USA), and medium–density NTA derivatized polycarboxylate hydrogel NiHC200M sensor chips (XanTec Bioanalytics, Düsseldorf, Germany). The experimental procedure involved two rounds of nickel activation and one immobilization step at a concentration of 200 nM. The proteins ECF-module (92,56146 kDa), ECF-PanT (113,8745 kDa), and ECF-FolT2 (112,16316 kDa) were immobilized in flow cells 1, 2, and 3, respectively according to the standard protocol as provided by Xantec bioanalytics with a slight modification based on the recombinant proteins. The flow-cell 4 was left blank to serve as a reference.
The immobilization buffer employed for the immobilization process consisted of 10 mM HEPES with a pH of 7.5, 50 mM NaCl, 50 µM EDTA, and 0.05% DDM without DMSO. Following the immobilization step, for the binding study of the compounds, the running buffer was exchanged for the mentioned buffer with 5% v/v DMSO. This was done to ensure consistency in the percentage of DMSO present in the solutions containing the respective testing inhibitors, as these inhibitors were soluble in the DMSO solvent. By maintaining the same DMSO concentration, we aimed to minimize any potential solvent-related effects on the assay results. All running buffers were filtered and degassed before use.
The system was initially primed with 5 mM NiCl2 with an association and dissociation time of 2 min for each to activate the NTA sensor chip. Then, the recombinant proteins with a concentration of 200 nM were injected at a flow rate of 10 µL/min for 8 min. Finally, the baseline check with the running […]
the ECF-module, ECF-PanT, and ECF-FolT2, respectively.
First, the calibration curve for correction of the DMSO effect was prepared; the concentrations were 3%, 3.5% 4%, 4.5%, 5%, 5.5%, 6%, 6.5%, and 7% v/v and were diluted with SPR buffer. Then, the […]
concentration of DMSO in all the samples was set to 5% v/v DMSO. The samples (200 µL) were loaded on a 96-well plate and were injected at a flow rate of 50 μL/min. Single-cycle kinetics were applied for KD determination. The association time was set to 60 s, and the dissociation phase was recorded for 120 s. For surface regeneration, 0.35 M EDTA (pH 8.5) and 0.1 M NaOH were used. Data processing and analysis were performed by Scrubber software (Version 2.0c, 2008, BioLogic Software). Sensorgrams were calculated by sequential subtractions of the corresponding curves obtained from the reference flow cell and the running buffer (blank). SPR responses were expressed in the resonance unit (RU). The KD […]
(In general: In SPR one partner is held on a chip, and binding of the other changes the refractive index at the surface.)

Series [1] is described as follows: In vitro MTT cytotoxicity assay, HepG2. Type of series: cell-based, human. To be noted: human, read-out: Percent (%) cell viability at 100 μM, HepG2 cells. How it is done:
In vitro cytotoxicity evaluation […]
with minor modifications, which will be detailed below.
To obtain information regarding the toxicity of our compounds, their impact on the viability of human cells was investigated. HepG2 and A549 cells (2 × 10^4 cells per well) were seeded in 96-well, flat-bottomed culture plates in 100 µL culture medium (DMEM containing 10% fetal calve serum, 1% penicillin-streptomycin). Twenty-four hours after seeding the cells, medium was removed and replaced by medium containing test compounds in a final DMSO concentration of 1%. Compounds were tested in duplicates at a single concentration in 1% DMSO/medium. Epirubicin and doxorubicin were used as positive controls in serial dilutions starting from 10 µM, and rifampicin was used as a negative control (at 100 µM). The living cell mass was determined 48 h after treatment with compounds by adding 0.1 volumes of 3-(4,5-dimethylthiazol-2-yl)-2,5-diphenyltetrazolium bromide (MTT) solution (5 mg/mL sterile PBS) (Sigma, St. Louis, MO) to the wells. After incubating the cells for 30 min at 37 °C (atmosphere containing 5% CO2), medium was removed and MTT crystals were dissolved in 75 µL of a solution containing 10% SDS and 0.5% acetic acid in DMSO. The optical density (OD) of the samples was determined photometrically at 570 nm in a PHERAstar Omega plate reader (BMG labtech, Ortenberg, Germany). To obtain percent viability for each sample, their ODs were related to those of DMSO controls. At least two independent measurements were performed for each compound. The calculation of IC50 was performed using the nonlinear regression function of GraphPad Prism 10 (GraphPad Software, San Diego, CA, USA). […]
(Tetrazolium dyes change colour on reduction, which living cells bring about.)

Sequence of ECF‐module (EcfTAA′) (Q04HV7 whole entry): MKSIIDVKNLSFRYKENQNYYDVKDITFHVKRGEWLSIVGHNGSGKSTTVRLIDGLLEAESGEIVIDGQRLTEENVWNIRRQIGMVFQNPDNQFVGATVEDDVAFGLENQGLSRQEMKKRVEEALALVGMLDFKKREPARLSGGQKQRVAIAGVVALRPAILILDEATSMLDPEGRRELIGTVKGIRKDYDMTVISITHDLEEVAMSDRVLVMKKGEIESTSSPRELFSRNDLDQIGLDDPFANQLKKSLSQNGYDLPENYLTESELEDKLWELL
Sequence of ECF‐module (EcfTAA′) (Q97N51 whole entry): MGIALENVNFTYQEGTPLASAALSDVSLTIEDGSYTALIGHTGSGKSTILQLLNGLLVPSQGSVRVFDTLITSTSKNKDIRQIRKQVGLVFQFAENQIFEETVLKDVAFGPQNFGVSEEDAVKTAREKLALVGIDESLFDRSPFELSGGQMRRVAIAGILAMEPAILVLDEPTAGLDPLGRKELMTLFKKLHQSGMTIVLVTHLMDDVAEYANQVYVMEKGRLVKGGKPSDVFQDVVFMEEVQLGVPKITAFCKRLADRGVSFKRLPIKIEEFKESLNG
Sequence of ECF‐module (EcfTAA′) (A0A0H2ZPG6 entry or part of it): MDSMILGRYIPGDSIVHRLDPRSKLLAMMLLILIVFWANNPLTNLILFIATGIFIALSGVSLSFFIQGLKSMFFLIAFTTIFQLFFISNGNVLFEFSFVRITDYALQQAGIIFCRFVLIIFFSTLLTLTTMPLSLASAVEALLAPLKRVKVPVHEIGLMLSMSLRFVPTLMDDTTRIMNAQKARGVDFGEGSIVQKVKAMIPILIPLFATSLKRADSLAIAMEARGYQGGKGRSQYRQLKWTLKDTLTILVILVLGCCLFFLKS

As for `O=C(O)c1cc(OCc2cccc3ccccc23)ccc1O` [Compound 1], the Kd at ECF‐module (EcfTAA′) is > 200 µM. For the same compound, the viability at 48 h, 100 µM in series [1] stood at 20 ± 2%.

Take `O=C(O)c1cc(OCc2ccc(Br)c3ccccc23)ccc1O` [Compound 2]: on ECF‐module (EcfTAA′), the dissociation constant Kd is > 200 µM. The viability at 48 h, 100 µM in series [1] was 23 ± 7%.

Turning to `CC(C)(C)OC(=O)Nc1ccc(OCc2cccc3ccccc23)cc1C(=O)O` [Compound 3], the dissociation constant (Kd) on ECF‐module (EcfTAA′) is > 200 µM. Moreover, the viability at 48 h, 100 µM in series [1] amounted to 49 ± 3%.

`O=C(O)c1cccc(NCc2ccc(-c3ccc(Cl)cc3)o2)c1` [Compound 4]: on ECF‐module (EcfTAA′), the equilibrium dissociation constant (Kd) is > 200 µM. Moreover, the viability at 48 h, 100 µM in series [1] (HepG2 cells) stood at 88 ± 9%.

As for `O=C(O)c1cccc(NCc2ccc(-c3cccc(Cl)c3)o2)c1` [Compound 5], the Kd at ECF‐module (EcfTAA′) was > 200 µM. The viability at 48 h, 100 µM in series [1] (HepG2 cells) was 106 ± 8%.

Take `O=C(O)c1cccc(NCc2ccc(-c3ccccc3Cl)o2)c1` [Compound 6]: on ECF‐module (EcfTAA′), the Kd was > 200 µM. In series [1] (HepG2 cells), the viability at 48 h, 100 µM worked out at 105 ± 3%.

For the origin of these results see article PMC11521937, “Expression and characterization of pantothenate energy‐coupling factor transporters as an anti‐infective drug target” (Protein Science : A Publication of the Protein Society, 2024).
